{"source": "paper PMC7556031", "about": "“Tofacitinib and Baricitinib Are Taken up by Different Uptake Mechanisms Determining the Efficacy of Both Drugs in RA” (International Journal of Molecular Sciences, 2020)", "target": "T1, hMATE1 (multidrug and toxin extrusion protein 1) (Homo sapiens, UniProt Q96FL8)", "T1 construct": "gene SLC47A1; hMATE1 stably transfected in HEK293 cells", "T1 sequence (Q96FL8 1-570)": "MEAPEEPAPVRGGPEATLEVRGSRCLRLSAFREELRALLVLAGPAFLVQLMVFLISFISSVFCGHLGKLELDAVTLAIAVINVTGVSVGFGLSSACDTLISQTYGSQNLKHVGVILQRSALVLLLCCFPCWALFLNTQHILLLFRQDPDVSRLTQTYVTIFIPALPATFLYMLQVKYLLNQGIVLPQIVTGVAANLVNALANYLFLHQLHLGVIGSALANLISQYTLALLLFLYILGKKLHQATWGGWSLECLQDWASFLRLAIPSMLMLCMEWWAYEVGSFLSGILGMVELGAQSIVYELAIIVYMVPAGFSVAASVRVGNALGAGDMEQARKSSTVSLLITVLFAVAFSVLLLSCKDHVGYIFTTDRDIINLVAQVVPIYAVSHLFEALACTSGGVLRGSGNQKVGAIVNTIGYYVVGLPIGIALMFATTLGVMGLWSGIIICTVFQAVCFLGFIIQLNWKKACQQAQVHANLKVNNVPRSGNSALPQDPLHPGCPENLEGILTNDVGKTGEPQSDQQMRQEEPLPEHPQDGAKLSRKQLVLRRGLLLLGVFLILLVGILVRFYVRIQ", "assay": "cis-inhibition of ASP+ uptake in hMATE1-HEK293 cells after acidification; supported by LC/MS of temperature-dependent tofacitinib export", "assay_type": "cell-based", "data": [{"compound": "C[C@@H]1CCN(C(=O)CC#N)C[C@@H]1N(C)c1ncnc2[nH]ccc12", "note": "[Tofacitinib]", "values": [{"measurement": "IC50", "value": 19.8, "unit": "µM"}]}]}
